Starred links: 1 amine or outer side, 2 acyl side, 3 side chain; linkers in the order of their positions; H or OH if unused. Non-standard residues stand in square brackets, D forms with d. Primed or numbered codes have the meaning given here. *: point of attachment. Tyr(2,6Cl2-Z) = 2,6-dichlorobenzyl-L-tyrosine, O=C([C@H](Cc1ccc(OCc2c(Cl)cccc2Cl)cc1)N[*:1])[*:2]; Glu(Bzl) = L-glutamic acid benzyl ester, O=C(CC[C@H](N[*:1])C(=O)[*:2])OCc1ccccc1; diphenyl phosphonate = C-terminal diphenyl phosphonate (Arg^P(OPh)2); BODIPY(FL) = CC1=CC(C)=[N+]2C1=Cc1ccc(CCC(=O)*)n1[B-]2(F)F; 1Nal = N[C@@H](Cc1cccc2ccccc12)C(=O)O; ACC = NC(=O)Cc1cc(=O)oc2cc(N*)ccc12; Igl = N[C@H](C(=O)O)C1Cc2ccccc2C1; hArg = N=C(N)NCCCC[C@H](N)C(=O)O; Agp = N=C(N)NC[C@H](N)C(=O)O; PEG4′ = PEG linker, 4 units; Nle = CCCC[C@H](N)C(=O)O; Dab = NCC[C@H](N)C(=O)O; Cbz = O=C(OCc1ccccc1)*; Cy3 = Cy3 fluorophore; Ahx = NCCCCCC(=O)O
Tests used:
Format in all cases: biochemical
[1] = target: fXa (Homo sapiens, UniProt P00742); test: Inhibition kinetics (kobs/I) under pseudo first-order conditions, fXa; conditions: 10 nM fXa, substrate 50 μM SMII18, pH 7.4, 37° C.
Protocol: (§1) The Kobs/l parameters towards APC, fIIa, fXa, and fXIa were measured under pseudo first-order conditions (Table 1). The assay buffer contained 20 mM Tris-base, 150 mM NaCl, 5 mM CaCl2), pH 7.4. Each ABP or inhibitor was serially diluted until the seventh well to obtain the concentrations ranging from 308 nM to 100 µM, depending on the ABP/inhibitor used. The assay conditions were as follows: 20 μL of selected substrate (154 μM SMA5 for APC, 100 μM SMA4 for fIIa, 50 μM SMII18 for fXa, and 100 μM SMX1 for fXIa) was added into the wells containing 20 μL of seven different ABP/inhibitor concentrations. Next, 60 μL of APC, fIIa, fXa, or fXIa (at the concentration of 10 nM) preincubated for 15 min at 37° C. was added, and the fluorescence increase over time was measured (λex=355 nm, λem=460 nm) for 30 min. The Kobs/l values were calculated using GraphPad Prism and Microsoft Excel software as described previously.

[2] = target: T1, APC (Homo sapiens, UniProt P04070); test: Kinetic parameters (kcat/KM) of fluorogenic substrates, APC; conditions: APC versus other coagulation factors
Protocol: The Kcat/KM parameters towards APC, thrombin and fXa were measured using the procedure described in Modrzycka et al. Chemical Science, 2022, 13, 6813-6829.

[3] = target: T1, APC; test: Screen of APC tetrapeptide fluorogenic substrates; conditions: for activity and selectivity for APC in the substrate screen: out of substrates SMA1-SMA26
Protocol: (§2) To minimize potential cross reactivity, a detailed kinetic analysis of the four APC-selective substrates was performed against the other proteases.

[4] = tested on: other coagulation factors; test: Substrate hydrolysis by other coagulation factors
Protocol: as §2

[5] = target: T1, APC; test: Inhibition kinetics (kobs/I) under pseudo first-order conditions, APC; conditions: 10 nM APC, substrate 154 μM SMA5, pH 7.4, 37° C.
Protocol: as §1

[6] = target: fXIa (Homo sapiens, UniProt P03951); test: Inhibition kinetics (kobs/I) under pseudo first-order conditions, fXIa; conditions: 10 nM fXIa, substrate 100 μM SMX1, pH 7.4, 37° C.
Protocol: as §1

[7] = target: fIIa (Homo sapiens, UniProt P00734); test: Inhibition kinetics (kobs/I) under pseudo first-order conditions, fIIa; conditions: 10 nM fIIa, substrate 100 μM SMA4, pH 7.4, 37° C.
Protocol: as §1

T1 sequence (P04070 212-461 limits assumed): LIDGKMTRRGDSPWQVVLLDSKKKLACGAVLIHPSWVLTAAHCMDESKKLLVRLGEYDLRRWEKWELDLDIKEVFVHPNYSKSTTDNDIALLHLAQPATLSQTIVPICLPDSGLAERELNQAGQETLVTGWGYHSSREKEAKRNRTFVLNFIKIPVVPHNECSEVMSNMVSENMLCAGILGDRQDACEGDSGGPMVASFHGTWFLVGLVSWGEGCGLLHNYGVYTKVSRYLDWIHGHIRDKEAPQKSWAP
T1 sequence (P04070 43-197 partner limits assumed): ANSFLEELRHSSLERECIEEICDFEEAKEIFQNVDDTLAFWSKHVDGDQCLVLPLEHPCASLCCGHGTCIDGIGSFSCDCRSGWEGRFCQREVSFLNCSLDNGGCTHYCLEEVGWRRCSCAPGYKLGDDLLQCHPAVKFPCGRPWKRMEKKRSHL
Chain of fXIa (P03951 388-625 limits assumed): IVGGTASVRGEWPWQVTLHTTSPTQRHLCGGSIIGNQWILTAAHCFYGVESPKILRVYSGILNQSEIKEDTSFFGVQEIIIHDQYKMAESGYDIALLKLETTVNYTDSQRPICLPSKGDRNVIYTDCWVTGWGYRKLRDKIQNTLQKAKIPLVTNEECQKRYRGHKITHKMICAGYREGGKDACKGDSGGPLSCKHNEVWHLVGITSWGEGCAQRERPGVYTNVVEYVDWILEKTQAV
Chain of fXIa (P03951 19-387 partner limits assumed): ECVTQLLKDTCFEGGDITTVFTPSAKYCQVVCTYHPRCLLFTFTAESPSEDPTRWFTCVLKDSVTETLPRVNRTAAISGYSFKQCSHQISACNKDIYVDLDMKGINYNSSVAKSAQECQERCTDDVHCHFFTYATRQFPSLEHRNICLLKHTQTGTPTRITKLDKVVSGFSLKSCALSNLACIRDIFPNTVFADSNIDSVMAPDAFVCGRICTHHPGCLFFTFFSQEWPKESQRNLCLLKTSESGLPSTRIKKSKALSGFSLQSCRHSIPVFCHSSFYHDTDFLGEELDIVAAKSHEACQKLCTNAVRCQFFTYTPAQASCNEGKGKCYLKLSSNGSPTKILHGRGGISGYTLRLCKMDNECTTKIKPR
Chain of fXa (P00742 235-488 limits assumed): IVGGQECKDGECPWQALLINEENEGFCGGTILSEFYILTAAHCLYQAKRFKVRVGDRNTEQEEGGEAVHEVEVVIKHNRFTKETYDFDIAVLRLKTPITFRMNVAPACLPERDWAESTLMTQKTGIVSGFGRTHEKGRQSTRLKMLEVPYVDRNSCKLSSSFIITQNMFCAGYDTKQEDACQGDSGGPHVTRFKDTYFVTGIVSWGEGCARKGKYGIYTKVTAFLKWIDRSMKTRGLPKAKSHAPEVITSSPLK
Chain of fXa (P00742 41-179 partner limits assumed): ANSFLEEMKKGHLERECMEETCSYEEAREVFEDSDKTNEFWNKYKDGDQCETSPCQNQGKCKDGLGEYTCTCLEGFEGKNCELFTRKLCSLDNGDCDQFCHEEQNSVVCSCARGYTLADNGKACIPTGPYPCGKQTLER

Substance: Ac-DPro-hArg-1-Nal-Arg^P(OPh)2 (Ac-[dP][hArg][1Nal]R-{diphenyl phosphonate}) [I-SMX15]
- kobs/I fXa [1]: 1,200 ± 100 M^−1s^−1

Substance: Ac-K[Dab](Cbz)KR-{ACC} [SMA 17]
- Kcat/KM selectivity ratio [2]: very high
- activity and selectivity for APC in the substrate screen [3]: showed the most activity and selectivity for APC
- hydrolysis when tested with other coagulation factors [4]: almost nondetectable

Substance: Ac-K[Dab](Cbz)[Igl]R-{ACC} [SMA 5]
- activity and selectivity for APC in the substrate screen [3]: showed the most activity and selectivity for APC
- cleavage efficiency compared to the best natural substrate (SMA54) ([3]; relative to SMA54): approximately 50 fold

Substance: Ac-Lys-Agp-Igl-Arg-ACC (Ac-K[Agp][Igl]R-{ACC}; SMILES CC(=O)N[C@@H](CCCCN)C(=O)N[C@@H](CNC(=N)N)C(=O)N[C@H](C(=O)N[C@@H](CCCNC(=N)N)C(=O)Nc1ccc2c(CC(N)=O)cc(=O)oc2c1)C1Cc2ccccc2C1) [SMA 6, fluorogenic substrate for APC]
- activity and selectivity for APC in the substrate screen [3]: showed the most activity and selectivity for APC

Substance: Ac-Lys-Dab(Z)-Lys-Arg^P(OPh)2 [I-SMA17]
- kobs/I APC [5]: 1,980 ± 20 M^−1s^−1

Substance: Ac-Tyr(2,6Cl2-Z)-Nle-Glu(Bzl)-Arg^P(OPh)2 (Ac-[Tyr(2,6Cl2-Z)][Nle][Glu(Bzl)]R-{diphenyl phosphonate}) [I-SMXI5]
- kobs/I fXIa [6]: 54,700 ± 2,800 M^−1s^−1

Substance: Ac-hCha-Cys(MeBzl)-Pip-Arg^P(OPh)2 [I-SMII22]
- kobs/I fIIa [7]: 209,000 ± 13,800 M^−1s^−1

Substance: Bodipy-PEG(4)-Tyr(2,6Cl2-Z)-Nle-Glu(Bzl)-Arg^P(OPh)2 ({BODIPY(FL)-PEG4′}-[Tyr(2,6Cl2-Z)][Nle][Glu(Bzl)]R-{diphenyl phosphonate}) [P-SMXI52]
- kobs/I fXIa [6]: 3,120 ± 100 M^−1s^−1

Substance: Cy3-6-Ahx-DPro-hArg-1-Nal-Arg^P(OPh)2 ({Cy3-Ahx}-[dP][hArg][1Nal]R-{diphenyl phosphonate}) [P-SMX152]
- kobs/I fXa [1]: 1,800 ± 100 M^−1s^−1

Substance: Cy5-6-Ahx-Lys-Dab(Z)-Lys-Arg^P(OPh)2 [P-SMA172]
- kobs/I APC [5]: 2,250 ± 170 M^−1s^−1

Substance: Cy7-6-Ahx-hCha-Cys(MeBzl)-Pip-Arg^P(OPh)2 [P-SMII222]
- kobs/I fIIa [7]: 3,500 ± 300 M^−1s^−1
